Nine compounds from PubChem BioAssay (NCI) can be followed below.

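Values below derive from 48-hour exposures of cells grown in 96-well plates, with endpoints linearly interpolated between the two concentrations bracketing the appropriate inhibition level. GI50 is the concentration that inhibits growth by half. TGI: concentration producing complete growth inhibition.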 Where only a bound is given, the exact number is not on record here.

Among the test systems are HOP-92 NSCLC; M14 melanoma; CCRF-CEM leukemia; COLO 205 colon; NCI-H23 lung; HT29 colon; SNB-19 CNS; HS 578T breast; MCF7 breast; NCI-H522 lung.
Experiment in all cases: DTP human tumour cell line panel, 48 h

The term GI50 denotes the concentration giving 50% growth inhibition. One may read the TGI as the concentration at which net growth stops. Higher therefore signals lower sensitivity of the cells. `C=C(C)[C@@H]1CC[C@]2(C(=O)O)CC[C@]3(C)[C@H](CC[C@@H]4[C@@]5(C)CCC(NC(=O)c6cccc(OC(C)=O)c6OC(C)=O)C(C)(C)[C@@H]5CC[C@]43C)[C@@H]12` (stereo not given in full): the GI50 with HOP-92 NSCLC is 0.439 µM; in the assay on M14 melanoma, 0.399 µM; with CCRF-CEM leukemia it was 0.585 µM; in the assay with COLO 205 colon, 0.345 µM; with NCI-H23 lung it was 0.615 µM; with HT29 colon it was 0.806 µM. Moreover, the GI50 was 0.832 µM in the assay on SNB-19 CNS, 0.566 µM in the assay with HS 578T breast, 0.586 µM in the assay on MCF7 breast and 0.371 µM with NCI-H522 lung. The TGI in the assay with HOP-92 NSCLC amounted to 2.25 µM; in the assay on M14 melanoma it was 2.25 µM; in the assay with CCRF-CEM leukemia it was 18.9 µM; in the assay on COLO 205 colon, 1.9 µM; in the assay with NCI-H23 lung, 4.62 µM; with HT29 colon, 3.14 µM. Further, the TGI came out at 25.7 µM with SNB-19 CNS, 4.28 µM with HS 578T breast, 6.42 µM in the assay on MCF7 breast and 1.62 µM in the assay with NCI-H522 lung.
As to `COc1cc2ncn(-c3cc(O[C@@H](C)c4ccccc4Cl)c(C(N)=O)s3)c2cc1OC`, the GI50 was 4.67 µM in the assay on HOP-92 NSCLC; 1.76 µM in the assay on M14 melanoma; 0.107 µM in the assay on CCRF-CEM leukemia; 0.444 µM in the assay with COLO 205 colon; 1.57 µM with NCI-H23 lung; 0.107 µM with HT29 colon. Further, the GI50 in the assay with SNB-19 CNS is 2.7 µM; in the assay with HS 578T breast it was 2.11 µM; in the assay on MCF7 breast, 0.111 µM; in the assay with NCI-H522 lung, 0.434 µM. For the same compound, the TGI was over 25 µM in the assay with HOP-92 NSCLC; over 25 µM in the assay on M14 melanoma; over 10.5 µM with CCRF-CEM leukemia; over 25 µM with COLO 205 colon; over 25 µM in the assay with NCI-H23 lung; over 25 µM in the assay with HT29 colon. Moreover, the TGI was over 25 µM in the assay on SNB-19 CNS, 13.4 µM in the assay with HS 578T breast, over 25 µM in the assay on MCF7 breast and 6.51 µM in the assay on NCI-H522 lung.
For `COc1cc2c(cc1OC)-c1ccc3cc4c(cc3c1N(CCCn1ccnc1)C2)OCO4`, the GI50 in the assay on HOP-92 NSCLC was 3.58 µM; in the assay with M14 melanoma it was 3.5 µM; in the assay with CCRF-CEM leukemia it was 0.62 µM; in the assay with COLO 205 colon it was 1.49 µM; in the assay on NCI-H23 lung, 2.23 µM; in the assay on HT29 colon, 3.22 µM. Further, the GI50 in the assay on SNB-19 CNS is 0.79 µM; in the assay on HS 578T breast, 5.75 µM; with MCF7 breast it was 0.364 µM; in the assay on NCI-H522 lung, 0.565 µM. The TGI with HOP-92 NSCLC worked out at 32.5 µM; in the assay on M14 melanoma it was 15.6 µM; in the assay with CCRF-CEM leukemia, 21.4 µM; in the assay on COLO 205 colon, 6.12 µM; in the assay with NCI-H23 lung, 21.3 µM; in the assay on HT29 colon, 30.7 µM. In addition, the TGI with SNB-19 CNS amounted to 12.7 µM; with HS 578T breast, 40 µM; in the assay on MCF7 breast it was 74.1 µM; with NCI-H522 lung, 3.35 µM.
On to `CNC(=O)c1ccc(N2C(=S)N(c3ccc(C#N)c(C(F)(F)F)c3)C(=O)C2(C)C)cc1F`, for which the GI50 with HOP-92 NSCLC is 16.5 µM; in the assay with M14 melanoma, 32.4 µM; in the assay on CCRF-CEM leukemia, 30 µM; in the assay on COLO 205 colon it was 32 µM; in the assay on NCI-H23 lung, 30.2 µM; in the assay with HT29 colon it was 43.3 µM. Moreover, the GI50 in the assay with SNB-19 CNS is over 61.2 µM; with HS 578T breast, over 43.1 µM; in the assay on MCF7 breast it was 33.9 µM; with NCI-H522 lung, 50.9 µM. Further, the TGI in the assay with HOP-92 NSCLC is over 48.9 µM; in the assay on M14 melanoma, over 65.3 µM; with CCRF-CEM leukemia, over 100 µM; with COLO 205 colon, over 57.7 µM; in the assay with NCI-H23 lung, over 89.6 µM; in the assay with HT29 colon, over 100 µM. For the same compound, the TGI was over 100 µM with SNB-19 CNS, over 86.8 µM in the assay on HS 578T breast, over 82.3 µM with MCF7 breast and over 100 µM in the assay on NCI-H522 lung.
On to `C#CC1(OC(C)=O)CCC2C3CC=C4C=C(OC(C)=O)CCC4(C)C3CCC21C` (stereo not given), for which the TGI with HOP-92 NSCLC is 32.9 µM; with M14 melanoma, 70.3 µM; in the assay with CCRF-CEM leukemia, 30.5 µM; with COLO 205 colon, 58.5 µM; with NCI-H23 lung, 47.1 µM; in the assay with HT29 colon it was 40 µM. The TGI with SNB-19 CNS is over 100 µM; with HS 578T breast, over 100 µM; in the assay on MCF7 breast, 49.9 µM; in the assay with NCI-H522 lung, 34.9 µM.
With `Cc1nc2sc(C(=O)Nc3cccc4ccccc34)c(N)c2cc1C(O)c1ccccc1` (stereo not given), the GI50 in the assay on HOP-92 NSCLC was 2.11 µM; in the assay with M14 melanoma it was 0.0409 µM; in the assay on CCRF-CEM leukemia it was 0.0409 µM; in the assay with COLO 205 colon, 0.349 µM; in the assay with NCI-H23 lung it was 0.104 µM; in the assay with HT29 colon it was 0.038 µM. Besides, the 50% growth inhibitory concentration (GI50) was 0.108 µM in the assay on SNB-19 CNS, 0.0306 µM with HS 578T breast, 0.0373 µM in the assay with MCF7 breast and 0.048 µM in the assay with NCI-H522 lung. The TGI was 18.8 µM with HOP-92 NSCLC; 15 µM in the assay with M14 melanoma; over 100 µM with CCRF-CEM leukemia; 2.28 µM in the assay on COLO 205 colon; 15.3 µM in the assay on NCI-H23 lung; 14.1 µM in the assay on HT29 colon. Moreover, the TGI was over 66.7 µM in the assay on SNB-19 CNS, 0.693 µM in the assay on HS 578T breast, 13.4 µM in the assay with MCF7 breast and 11.4 µM in the assay on NCI-H522 lung.
As to `Cc1cc(=O)oc2c(C)c(O)ccc12`, the TGI in the assay with HOP-92 NSCLC, with M14 melanoma, in the assay with CCRF-CEM leukemia, in the assay on COLO 205 colon, with NCI-H23 lung and with HT29 colon was over 100 µM in each case. The TGI with SNB-19 CNS, with HS 578T breast, in the assay on MCF7 breast and in the assay with NCI-H522 lung was over 100 µM in each case.
Turning to `O=C1c2ccccc2-c2oc(=O)c3ccccc3c21`, the TGI in the assay with HOP-92 NSCLC, in the assay with M14 melanoma, in the assay on CCRF-CEM leukemia, with COLO 205 colon, with NCI-H23 lung and in the assay on HT29 colon was over 100 µM throughout. The TGI in the assay with SNB-19 CNS, in the assay on HS 578T breast, with MCF7 breast and with NCI-H522 lung was over 100 µM in each case.
Regarding `O=c1ccs[nH]1`, the TGI with HOP-92 NSCLC amounted to 32.2 µM; with M14 melanoma, 26.2 µM; with CCRF-CEM leukemia it was 17.2 µM; with COLO 205 colon, 30.9 µM; in the assay with NCI-H23 lung it was 43.7 µM; in the assay with HT29 colon it was 34.4 µM. Further, the TGI in the assay on SNB-19 CNS was over 89.1 µM; with HS 578T breast, 49.7 µM; with MCF7 breast it was 38.7 µM; with NCI-H522 lung, 1.75 µM.
